Assay results taken from patent publication US20260217656A1, “Compounds Affecting KRAS” (UNIVERSITAT DE BARCELONA, priority 2022, published 2026).

How the values were obtained:
[1] = tested on: hTERT-RPE cells; assay: Cleaved caspase-3 Western blot, hTERT-RPE; assay type: cell-based, human; details: hTERT-RPE cells treated 34 h or 48 h
Procedure: FIG. 6C is a blot showing extracts of DLD-1, DLD-1-KO and RPE cells at 34 h. and 48 h. DLD-1 cells treated with P14B for 36 h and 48 h were lysed and the expression of the apoptosis marker cleaved caspase-3 was analyzed by Western blot. Cells treated with the apoptosis inducer palmitic acid (PA) were used as a positive control.
Proteins were resolved by SDS-PAGE, transferred onto PVDF membranes (Immobilon-P, Millipore) and Western blot was performed as previously described (Cabot et al, Oncogene 2021). […]
Since both inhibition and sustained activation of RAS signaling are related to a decrease in cell survival, we analyzed the viability of the CRC cell lines DLD-1 (expressing oncogenic KRAS) and DLD-1-KO (oncogenic KRAS allele deleted), and the non-transformed cell line hTERT-RPE. […] The effect of P14B in DLD-1 cells cultured in 3D conditions was also determined. […]

[2] = target: T1, HA-KRAS-G12V interaction with BRAF, C-RAF/P-C-RAF, ARAF (Homo sapiens, UniProt P01116, G12V); assay: Co-immunoprecipitation of HA-KRASG12V with RAF family members; assay type: cell-based; details: 10 min treatment, 100 μM
T1 construct: expressed in transfected cells; host or cells: DLD-1 KO (KRAS WT/-) clone DWT7 cells stably expressing HA-KRAS G12V
Procedure: DLD-1 KO cells stably expressing HA-KRAS G12V were serum starved for the next 24 hours before treatment with the compounds for the times indicated. Next, an IP with anti-HA antibody crosslinked to agarose beads (clone HA-7, Sigma-Aldrich A20956) was performed as previously described (Cabot et al, Oncogene 2021).
We assessed the possibility that P14B favors RAS-effector binding and consequently increases downstream RAS signaling. To this end, co-immunoprecipitation experiments were carried out to analyze the interaction of KRAS with different RAF family members upon P14B treatment. The interaction was analyzed after 10 min of P14B treatment since P—C-RAF and P-MEK were observed after 15 min (FIG. 3C). DLD-1 cells stably expressing HA-KRAS-G12V were serum-starved and then treated for 10 min with either EGF or P14B.

[3] = tested on: ERK and AKT in hTERT-RPE cells; assay: Western blot of AKT and ERK activation in serum-starved hTERT-RPE cells; assay type: cell-based, human; details: 100 μM
Source text: DLD-1 (KRASWT/G13D) (clone V15, #HD PAR-086) colorectal adenocarcinoma cell line and DLD-1 knockout of mutant KRAS allele, DLD-1 KO (KRASWT/−) (clone DWT7, #HD105-002), were obtained from Horizon Discovery Ltd. (Cambridge, UK). hTERT-RPE (KRASWT/WT) immortalized retinal pigment epithelial human cell line was obtained from the […] (ATCC). DLD-1 KO cells stably expressing HA-KRAS G12V were previously generated in our laboratory (Cabot et al., 2021). All cells were grown in DMEM-HAM s F12 (1:1) supplemented with 10% foetal bovine serum (Biological Industries, Israel), penicillin, streptomycin, and nonessential amino acids. […]
For analysis of RAS signalling, cells were lysed in a buffer containing 67 mM Tris-HCl pH 6.8 and 2% SDS and then the samples were heated at 97° C. for 15 minutes. Protein concentration of the lysates was assessed using the Lowry method. […]
Comparison of Ras signaling between DLD-1, DLD-1-KO and hTERT-RPE cells treated with P14B since important differences were observed between the viability of cells treated with P14B depending on their expression or lack of expression of oncogenic KRAS, we further studied whether these discrepancies were reflected also in KRAS downstream signaling. Serum-starved cells (0.1% FCS) were treated with P14B (100 μM) and activation of AKT and ERK was evaluated by WB. […]

[4] = tested on: DLD-1 cells; assay: 3D on-top Matrigel assay; assay type: cell-based, human
Procedure: FIG. 6B is a series of images of cells. In total 2.5×10^4 DLD-1 cells were cultured on top of a thin basement membrane matrix (Matrigel) overlaid with a dilute solution of this basement membrane matrix (3D on-top Matrigel assay). At the time of seeding or 24 h later, cells were treated with P14B ([…] after seeding the colonies that had formed were analysed. Representative phase-contrast images are shown. All scale bars, […]
3D on-top Matrigel assay was performed as described in (Cabot et al., 2021).
Since both inhibition and sustained activation of RAS signaling are related to a decrease in cell survival, we analyzed the viability of the CRC cell lines DLD-1 (expressing oncogenic KRAS) and DLD-1-KO (oncogenic KRAS allele deleted), and the non-transformed cell line hTERT-RPE. […] At the IC50 of approximately 80 μM for DLD-1 cells, the viability of DLD-1-KO and of non-transformed cells was not affected (FIG. 6A). […] The effect of P14B in DLD-1 cells cultured in 3D conditions was also determined. […] Consequently, we conclude that P14B selectively reduces the viability of CRC cells expressing oncogenic KRAS, causing minor effects if these cells have been knocked out for oncogenic KRAS or in non-transformed cells. Thereby, P14B might be considered as an inducer of apoptosis in CRC with oncogenic KRAS.

[5] = tested on: ERK and AKT in DLD-1 cells stably expressing HA-KRAS-G12V; assay: Western blot of AKT and ERK phosphorylation in DLD-1 cells stably expressing HA-KRAS-G12V; assay type: cell-based, human; details: serum-starved DLD-1 cells stably expressing HA-KRAS-G12V
Source text: DLD-1 (KRASWT/G13D) (clone V15, #HD PAR-086) colorectal adenocarcinoma cell line and DLD-1 knockout of mutant KRAS allele, DLD-1 KO (KRASWT/−) (clone DWT7, #HD105-002), were obtained from Horizon Discovery Ltd. (Cambridge, UK). hTERT-RPE (KRASWT/WT) immortalized retinal pigment epithelial human cell line was obtained from the […] (ATCC). DLD-1 KO cells stably expressing HA-KRAS G12V were previously generated in our laboratory (Cabot et al., 2021). All cells were grown in DMEM-HAM s F12 (1:1) supplemented with 10% foetal bovine serum (Biological Industries, Israel), penicillin, streptomycin, and nonessential amino acids. Cells were tested once per month for mycoplasma contamination.
Cells were seeded in a media containing 10% FBS for 24 hours and then they were serum starved (0.1% FBS) for the next 24 hours. Afterwards, they were incubated with the different compounds during the times specified in each figure. When indicated, also in order to activate downstream KRAS cell signalling, treatment for 10 minutes with EGF (50 ng/mL) (Sigma-Aldrich) was performed. […]
We assessed the possibility that P14B favors RAS-effector binding and consequently increases downstream RAS signaling. […] The interaction was analyzed after 10 min of P14B treatment since P—C-RAF and P-MEK were observed after 15 min (FIG. 3C). […]

COc1ccc(C(c2c(C)n[nH]c2O)c2c(C)n[nH]c2O)cc1Oc1ccc([N+](=O)[O-])cc1 [Example P14B]
cleaved caspase-3 expression [1]: undetectable | KRAS-ARAF binding [2]: No differences | P-C-RAF co-immunoprecipitated with KRAS ([2]; serum-starved cells): increased the levels of P—C-RAF co-immunoprecipitated with KRAS | KRAS-BRAF interaction ([2]; with respect to non-treated cells): increase in the KRAS-BRAF interaction | AKT and ERK phosphorylation [3]: no significant increase | size of the colonies in Matrigel ([4]; P14B added 24 h after seeding, 40 μM): clear reduction in the size of the colonies | capacity to form colonies in Matrigel ([4]; P14B added when seeding the cells, 10 μM): drastic reduction in the capacity to form colonies | phosphorylation of AKT and ERK [5]: induced phosphorylation of AKT and ERK
